From paper PMC5250654 (Clinical Drug Investigation, 2016)
Entries after “also recorded” stand apart in the source; their conditions may differ. Where two headings read alike, the source gives them in different places.

Assays:
[1] = clinical; conditions: human, in vivo, po
[2] = Safety and tolerability, fed studies; assay type: in vivo, human; conditions: n = 40
[3] = Aqueous solubility of mono-mesylate salt; assay type: physicochemical
[4] = tested on: anti-immunoglobulin E-stimulated CD63 expression on basophils; experiment: CD63 assay: ex vivo anti-IgE-stimulated CD63 expression on whole-blood basophils; assay type: cell-based, human
[5] = Safety and tolerability, FIH study; assay type: in vivo, human
[6] = for C trough: Day 7 (steady state), mean (%CV)
[7] = target: uridine 5′-diphospho-glucuronosyltransferase (UGT) 1A1; conditions: read-out: UGT1A1 inhibition IC50; in vitro; cited from earlier work
[8] = fed vs fasted, dose-dependent
[9] = clinical; conditions: human, in vivo; for Tmax: t max; for Tmax / half-life: fasted; for half-life: t ½
[10] = tested on: relapsed or refractory CLL; conditions: 800 mg twice-daily oral, relapsed or refractory CLL (n = 41), cited from earlier work
[11] = tested on: B cell malignancies; conditions: 200 or 250 mg twice daily, cited from earlier work
[12] = FIH study (fasted), multiple dose, n = 56
[13] = FIH study (fasted), single dose, n = 40
[14] = po, 200 mg, Day 7 (steady state), 200 mg twice daily oral, median (interquartile range)
[15] = po, 600 mg, Day 7 (steady state), 600 mg twice daily oral, median (interquartile range)
[16] = po, 1200 mg, Day 7 (steady state), 1200 mg twice daily oral, median (interquartile range)

c1cn2cc(-c3ccc4cn[nH]c4c3)nc(Nc3ccc(N4CCOCC4)cc3)c2n1 [entospletinib, Entospletinib]
half-life [1]: ~9 h
AUC(0-inf) ([1]; 25 mg): 231 ng·h/mL
Cmax ([1]; 25 mg): 42.3 ng/mL
Tmax ([1]; 25 mg): 2 h
half-life ([1]; 25 mg): 6.77 h
AUC(0-inf) ([1]; 75 mg): 413 ng·h/mL
Cmax ([1]; 75 mg): 67.8 ng/mL
Tmax ([1]; 75 mg): 2.75 h
half-life ([1]; 75 mg): 5.31 h
AUC(0-inf) ([1]; 200 mg): 4250 ng·h/mL
Cmax ([1]; 200 mg): 534 ng/mL
Tmax ([1]; 200 mg): 2 h
half-life ([1]; 200 mg): 9.51 h
Cmax ([1]; 600 mg): 779 ng/mL
Tmax ([1]; 600 mg): 2 h
half-life ([1]; 600 mg): 7.72 h
AUC(0-inf) ([1]; 1200 mg): 9740 ng·h/mL
Cmax ([1]; 1200 mg): 1060 ng/mL
Tmax ([1]; 1200 mg): 3.25 h
half-life ([1]; 1200 mg): 9.59 h
Treatment-related AE: Headache [2]: 10 (25.0) n (%)
Treatment-related AE: Oropharyngeal pain [2]: 5 (12.5) n (%)
Treatment-related AE: Urinary tract infection [2]: 1 (2.5) n (%)
solubility ([3]; aqueous buffer, pH 2): 3000 µg/mL
solubility ([3]; aqueous medium): < 1 µg/mL
inhibition of CD63 expression maintained at C trough ([4]; doses ≥600 mg twice daily, 12 h post-dose): ≥ 63%
maximal mean inhibition of CD63 expression ([4]; doses ≥600 mg twice daily, peak at 2–4 h post-dose): ≥ 86%
EC50 for inhibition of CD63 ([4]; plasma concentration–response, percentage of baseline): 0.429 µg/mL
severity of adverse events ([5]; FIH and fed studies): mild to moderate; also recorded: mild or moderate
discontinuations due to treatment-related AEs ([5]; FIH study): no AE-driven study drug discontinuations
Laboratory abnormality Grade ≥3: ALT [5, 12]: 1 (1.8) n (%)
Laboratory abnormality Grade ≥3: AST [5, 12]: 1 (1.8) n (%)
Laboratory abnormality Grade ≥3: Total bilirubin [5, 12]: 1 (1.8) n (%)
Treatment-related AE: Headache [5, 12]: 18 (32.1) n (%)
Treatment-related AE: Oropharyngeal pain [5, 12]: 6 (10.7) n (%)
Treatment-related AE: Rhinorrhea [5, 12]: 7 (12.5) n (%)
Laboratory abnormality Grade ≥3: Creatinine kinase [5, 13]: 1 (2.5) n (%)
Treatment-related AE: Headache [5, 13]: 5 (12.5) n (%)
Treatment-related AE: Nausea [5, 13]: 6 (10.7) n (%)
tolerability ([5]; single or multiple oral doses, healthy adults): generally well-tolerated; also recorded: When administered in single or multiple oral doses in healthy adults, entospletinib monotherapy is generally well-tolerated
increase in exposure (C max and AUC) on day 7 compared with day 1 ([6]; 7 days of twice-daily dosing, fasted): 2- to 4 fold
C trough ([6]; 25 mg twice daily oral, fasted): 11.9 (64.5) ng/mL
C trough ([6]; 75 mg twice daily oral, fasted): 79.2 (64.0) ng/mL
C trough ([6]; 200 mg twice daily oral, fasted): 380 (63.3) ng/mL
C trough ([6]; 600 mg twice daily oral, fasted): 1242 (65.6) ng/mL
C trough ([6]; 900 mg twice daily oral, fasted): 1473 (67.2) ng/mL
C trough ([6]; 1200 mg twice daily oral, fasted): 1471 (79.6) ng/mL
steady-state C trough levels ([6]; doses of 600 mg twice daily or higher): > 1200 ng/mL
terminal t ½ ([6]; single and multiple oral administration, fasted): 9 h
IC50 [7]: ~2500 nM
reduction in AUC under fed conditions [8]: 20–80%
reduction in C max under fed conditions [8]: 20–70%
Tmax [9, 14]: 2.27 h
half-life [9, 14]: 10 h
Tmax [9, 15]: 2.25 h
half-life [9, 15]: 15.4 h
AUC(0-t) ([9]; po, 900 mg): 5860 ng·h/mL
Tmax [9, 16]: 2.75 h
half-life [9, 16]: 13.9 h
half-life ([9]; doses ≤200 mg twice daily): ~9 h
progression-free survival (PFS) rate ([10]; at 24 weeks): 70.1%
median PFS [10]: 13.8 months

COc1cc(Nc2ncc(F)c(Nc3ccc4c(n3)N(COP(=O)(O)O)C(=O)C(C)(C)O4)n2)cc(OC)c1OC [fostamatinib]
overall response rate (ORR) ([11]; CLL/small lymphocyte leukemia): 55%
overall response rate (ORR) ([11]; DLBCL): 22%
overall response rate (ORR) ([11]; FL): 10%
overall response rate (ORR) ([11]; MCL): 11%
